{"source": "patent US20130090364A1", "about": "“ANALOGUES FOR THE TREATMENT OR PREVENTION OF FLAVIVIRUS INFECTIONS” (priority 2010, published 2013)", "system": "HCV (1b) RNA replication (replicon I389Luc-ubi-neo/NS3-3′/5.1)", "test": "Cell-based luciferase reporter HCV (1b) RNA replication assay, Huh-ET cells", "conditions": "Hepatitis C virus, HCV genotype 1b replicon", "description": "Cell-Based Luciferase Reporter HCV (Ib) RNA Replication Assay Cell Culture\nReplicon cell lines Huh-5.2 are derived from the Huh-7 hepatocarcinoma cell line are maintained in culture as generally described in Krieger, N; Lohmann, V; Bartenschlager, R. Enhancement of hepatitis C virus RNA replication by cell culture-adaptive mutations. J. Virol. 2001, 75, 4614-4624. The Huh-5.2 cells contain the highly cell culture-adapted replicon I389Luc-ubi-neo/NS3-3′/5.1 construct that carries, in addition to the neomycin gene, an integrated copy to the firefly luciferase gene (Krieger, N; Lohmann, V; Bartenschlager, R. Enhancement of hepatitis C virus RNA replication by cell culture-adaptive mutations. J. Virol. 2001, 75, 4614-4624). This cell line allows measurement of HCV RNA replication and translation by measuring luciferase activity. It has been previously shown that the luciferase activity tightly follows the replicon RNA level in these cells (Krieger, N; Lohmann, V; Bartenschlager, R. Enhancement of hepatitis C virus RNA replication by cell culture-adaptive mutations. J. Virol. 2001, 75, 4614-4624). The Huh-ET cell line has the same features as those mentioned for Huh-5.2 cell line, except that ET cells are more robust and contain an adaptative mutation in the HCV NS4B gene instead of NSSA. Both cell lines are maintained in cultures at a sub-confluent level (<85%) as the level of replicon RNA is highest in actively proliferating cells. The culture media used for cell passaging consist of DMEM (Gibco BRL Laboratories, Mississauga, ON, Canada) supplemented with 10% foetal bovine serum with 1% penicilin/streptomycin, 1% glutamine, 1% sodium pyruvate, 1% non-essential amino acids, and 180 μg/ml of G418 final concentration. Cells are incubated at 37° C., in an atmosphere of 5% CO2 and passaged twice a week to maintain sub-confluence.\nApproximately 3000 viable Huh-ET cells (100 μl) are plated per well in a white opaque 96-well microtiter plate. The cell culture media used for the assay is the same as described above except that it contains no G418 and no phenol red. After an incubation period of 3-4 hours at 37° C. in a 5% CO2 incubator, compounds (100 μl) are added at various concentrations. Cells are then further incubated for 4 days at 37° C. in a 5% CO2 incubator. Thereafter, the culture media is removed and cells are lysed by the addition of 95 μL of the luciferase buffer (luciferin substrate in buffered detergent). Cell lysates are incubated at room temperature and protected from direct light for at least 10 minutes. Plates are read for luciferase counts using a luminometer (Wallac MicroBeta Trilux, Perkin Elmer™, MA, USA).\nCurves are fitted to data points using nonlinear regression analysis, and IC50s are interpolated from the resulting curve using GraphPad Prism software, version 2.0 (GraphPad Software Inc., San Diego, Calif., USA).", "note": "pEC50: −log10 of the molar value."}
{"smiles": "COC(=O)N[C@H](C(=O)N1C[C@@H](C)C[C@H]1c1ncc(C#Cc2ccc(-c3cc4[nH]c([C@@H]5C[C@H](C)CN5C(=O)[C@@H](NC(=O)OC)C(C)C)nc4s3)cc2)[nH]1)C(C)C", "note": "[Compound 12]", "values": [{"measurement": "pEC50", "setting": "Table 2A", "result": "≥ 8.30"}]}
{"smiles": "COC(=O)N[C@H](C(=O)N1C[C@@H](C)C[C@H]1c1nc(-c2cccc(-c3ccc(-c4cc5nc([C@@H]6C[C@H](C)CN6C(=O)[C@@H](NC(=O)OC)C(C)C)[nH]c5s4)cc3)c2)c[nH]1)C(C)C", "note": "[Compound 20]", "values": [{"measurement": "pEC50", "setting": "Table 2A", "result": "≥ 8.30"}]}
{"smiles": "COC(=O)N[C@H](C(=O)N1C[C@@H](C)C[C@H]1c1ncc(-c2ccc(-c3ccc(-c4cc5[nH]c([C@@H]6C[C@H](C)CN6C(=O)[C@@H](NC(=O)OC)C(C)C)nc5s4)cc3)c(C)c2)[nH]1)C(C)C", "note": "[Compound 12a]", "values": [{"measurement": "pEC50", "setting": "Table 2B", "result": "≥ 8.30"}]}
{"smiles": "COC(=O)N[C@H](C(=O)N1CCCC1c1nc2cc(C#Cc3cc4[nH]c([C@@H]5CCCN5C(=O)[C@@H](NC(=O)OC)C(C)C)nc4s3)ccc2[nH]1)C(C)C", "note": "(stereo partly drawn) [Compound 1]", "values": [{"measurement": "pEC50", "setting": "Table 2A", "result": "≥ 8.30"}]}
{"smiles": "COC(=O)N[C@H](C(=O)N1C[C@@H](C)C[C@H]1c1ncc(-c2ccc(-c3ccc(-c4cc5[nH]c([C@@H]6C[C@H](C)CN6C(=O)[C@@H](NC(=O)OC)C(C)C)nc5s4)cc3)c(F)c2)[nH]1)C(C)C", "note": "[Compound 9a]", "values": [{"measurement": "pEC50", "setting": "Table 2B", "result": "≥ 8.30"}]}
{"smiles": "COC(=O)N[C@H](C(=O)N1C[C@@H](C)C[C@H]1c1nc2cc(-c3ccc(-c4ccc(-c5cc6nc([C@@H]7C[C@H](C)CN7C(=O)[C@@H](NC(=O)OC)C(C)C)[nH]c6s5)cc4)cc3)sc2[nH]1)C(C)C", "note": "[Compound 24]", "values": [{"measurement": "pEC50", "setting": "Table 2A", "result": "≥ 8.30"}]}
{"smiles": "COC(=O)N[C@H](C(=O)N1C[C@@H](C)C[C@H]1c1nc2cc(/C=C/c3ccc(-c4cc5[nH]c([C@@H]6C[C@H](C)CN6C(=O)[C@@H](NC(=O)OC)C(C)C)nc5s4)cc3)ccc2[nH]1)C(C)C", "note": "[Compound 17]", "values": [{"measurement": "pEC50", "setting": "Table 2A", "result": "≥ 8.30"}]}
{"smiles": "COC(=O)N[C@H](C(=O)N1C[C@@H](C)C[C@@H]1c1nc2cc(-c3ccc(-c4ccc(-c5c[nH]c([C@@H]6C[C@H](C)CN6C(=O)[C@@H](NC(=O)OC)C(C)C)n5)cc4)cc3C)sc2[nH]1)C(C)C", "note": "[Compound 5a]", "values": [{"measurement": "pEC50", "setting": "Table 2B", "result": "≥ 8.30"}]}
{"smiles": "COC(=O)N[C@H](C(=O)N1C[C@@H](C)C[C@H]1c1ncc(-c2cc3sc(-c4ccc(-c5cc6[nH]c([C@@H]7C[C@H](C)CN7C(=O)[C@@H](NC(=O)OC)C(C)C)nc6s5)cc4)cc3s2)[nH]1)C(C)C", "note": "[Compound 29]", "values": [{"measurement": "pEC50", "setting": "Table 2A", "result": "≥ 8.30"}]}
{"smiles": "COC(=O)N[C@H](C(=O)N1C[C@@H](C)C[C@H]1c1nc2cc(-c3cc4sc(-c5cc6[nH]c([C@@H]7C[C@H](C)CN7C(=O)[C@@H](NC(=O)OC)C(C)C)nc6s5)cc4s3)ccc2[nH]1)C(C)C", "note": "[Compound 27]", "values": [{"measurement": "pEC50", "setting": "Table 2A", "result": "≥ 8.30"}]}
{"smiles": "COC(=O)N[C@H](C(=O)N1C[C@@H](C)C[C@H]1c1nc(C)c(-c2ccc(-c3ccc(-c4cc5nc([C@@H]6C[C@H](C)CN6C(=O)[C@@H](NC(=O)OC)C(C)C)[nH]c5s4)cc3)cc2)[nH]1)C(C)C", "note": "[Compound 28]", "values": [{"measurement": "pEC50", "setting": "Table 2A", "result": "≥ 8.30"}]}
{"smiles": "COC(=O)N[C@H](C(=O)N1C[C@@H](C)C[C@H]1c1cc2ccc(-c3ccc(-c4cc5[nH]c([C@@H]6C[C@H](C)CN6C(=O)[C@@H](NC(=O)OC)C(C)C)nc5s4)cc3)cc2[nH]1)C(C)C", "note": "[Compound 10]", "values": [{"measurement": "pEC50", "setting": "Table 2A", "result": "≥ 8.30"}]}
{"smiles": "COC(=O)N[C@H](C(=O)N1C[C@@H](C)C[C@H]1c1ncc(-c2ccc(-c3cc4sc(-c5cc6[nH]c([C@@H]7C[C@H](C)CN7C(=O)[C@@H](NC(=O)OC)C(C)C)nc6s5)cc4s3)cc2)[nH]1)C(C)C", "note": "[Compound 26]", "values": [{"measurement": "pEC50", "setting": "Table 2A", "result": "≥ 8.30"}]}
{"smiles": "C[C@H]1C[C@@H](c2ncc(-c3ccc(-c4ccc(-c5cc6[nH]c([C@@H]7C[C@H](C)CN7C(=O)OC(C)(C)C)nc6s5)cc4)c(F)c3)[nH]2)N(C(=O)OC(C)(C)C)C1", "note": "[Compound 4a]", "values": [{"measurement": "pEC50", "setting": "Table 2B", "result": "≥ 8.30"}]}
{"smiles": "COC(=O)N[C@H](C(=O)N1CCC[C@H]1c1nc2sc(C#CC#Cc3cc4[nH]c([C@@H]5CCCN5C(=O)[C@@H](NC(=O)OC)C(C)C)nc4s3)cc2[nH]1)C(C)C", "note": "[Compound 2]", "values": [{"measurement": "pEC50", "setting": "Table 2A", "result": "≥ 8.30"}]}
{"smiles": "COC(=O)N[C@H](C(=O)N1C[C@@H](C)C[C@H]1c1nc(-c2ccc(-c3ccc(-c4cc5[nH]c([C@@H]6C[C@H](C)CN6C(=O)[C@@H](NC(=O)OC)C(C)C)nc5s4)cc3C)cc2)c[nH]1)C(C)C", "note": "[Compound 8a]", "values": [{"measurement": "pEC50", "setting": "Table 2B", "result": "≥ 8.30"}]}
{"smiles": "COC(=O)N[C@H](C(=O)N1C[C@@H](C)C[C@H]1c1nc(Cl)c(-c2ccc(-c3ccc(-c4cc5nc([C@@H]6C[C@H](C)CN6C(=O)[C@@H](NC(=O)OC)C(C)C)[nH]c5s4)cc3)cc2)[nH]1)C(C)C", "note": "[Compound 1a]", "values": [{"measurement": "pEC50", "setting": "Table 2B", "result": "≥ 8.30"}]}
{"smiles": "COC(=O)N[C@H](C(=O)N1C[C@@H](C)C[C@H]1c1nc2sc(C#CC#Cc3cc4[nH]c([C@@H]5C[C@H](C)CN5C(=O)[C@@H](NC(=O)OC)C(C)C)nc4s3)cc2[nH]1)C(C)C", "note": "[Compound 4, dimethyl (2S,2′S)-1,1′-((3S,3′S,5S,5′S)-5,5′-(5,5′-(buta-1,3-diyne-1,4-diyl)bis(1H-thieno[2,3-d]imidazole-5,2-diyl))bis(3-methylpyrrolidine-5,1-diyl))bis(3-methyl-1-oxobutane-2,1-diyl)dicarbamate]", "values": [{"measurement": "pEC50", "setting": "Table 2A", "result": "≥ 8.30"}]}
{"smiles": "COC(=O)N[C@H](C(=O)N1C[C@@H](C)C[C@H]1c1nc2cc(-c3ccc(-c4cc5[nH]c([C@@H]6C[C@H](C)CN6C(=O)[C@@H](NC(=O)OC)C(C)C)nc5s4)cc3)ccc2[nH]1)C(C)C", "note": "[Compound 13]", "values": [{"measurement": "pEC50", "setting": "Table 2A", "result": "≥ 8.30"}]}
{"smiles": "COC(=O)N[C@H](C(=O)N1C[C@@H](C)C[C@H]1c1ncc(C#Cc2ccc(-c3ccc(-c4cc5[nH]c([C@@H]6C[C@H](C)CN6C(=O)[C@@H](NC(=O)OC)C(C)C)nc5s4)s3)cc2)[nH]1)C(C)C", "note": "[Compound 21]", "values": [{"measurement": "pEC50", "setting": "Table 2A", "result": "≥ 8.30"}]}
{"smiles": "COC(=O)N[C@H](C(=O)N1C[C@@H](C)C[C@H]1c1ncc(C#Cc2ccc(-c3cc4[nH]c([C@@H]5C[C@H](C)CN5C(=O)[C@@H](NC(=O)OC)C(C)C)nc4s3)s2)[nH]1)C(C)C", "note": "[Compound 31]", "values": [{"measurement": "pEC50", "setting": "Table 2A", "result": "≥ 8.30"}]}
{"smiles": "COC(=O)N(C)[C@H](C(=O)N1C[C@@H](C)C[C@H]1c1nc2sc(C#CC#Cc3cc4[nH]c([C@@H]5C[C@H](C)CN5C(=O)[C@H](C(C)C)N(C)C(=O)OC)nc4s3)cc2[nH]1)C(C)C", "note": "[Compound 5]", "values": [{"measurement": "pEC50", "setting": "Table 2A", "result": "≥ 8.30"}]}
{"smiles": "C[C@H]1C[C@@H](c2nc3cc(-c4ccc(-c5ccc(-c6cc7[nH]c([C@@H]8C[C@H](C)CN8C(=O)OC(C)(C)C)nc7s6)cc5)s4)ccc3[nH]2)N(C(=O)OC(C)(C)C)C1", "note": "[Compound 18]", "values": [{"measurement": "pEC50", "setting": "Table 2A", "result": "5.30 to 8.30"}]}
{"smiles": "COC(=O)N[C@H](C(=O)N1C[C@@H](C)C[C@H]1c1nc(Cl)c(-c2ccc(-c3ccc(-c4sc5[nH]c([C@@H]6C[C@H](C)CN6C(=O)[C@@H](NC(=O)OC)C(C)C)nc5c4Cl)cc3)cc2)[nH]1)C(C)C", "note": "[Compound 2a]", "values": [{"measurement": "pEC50", "setting": "Table 2B", "result": "≥ 8.30"}]}
